The results in this text go back to patent US10619138B2, “Herbicide-resistant hydroxyphenylpyruvate dioxygenases” (BASF SE, priority 2013, dated 2020).

The target in test [1] is T1, Arabidopsis HPPD (SEQ ID NO: 42) (Arabidopsis thaliana, UniProt P93836).
T1 construct: Arabidopsis (42); His tag; made in house; host or cells: E. coli BL21 (DE3)
T1 sequence (P93836 1-445): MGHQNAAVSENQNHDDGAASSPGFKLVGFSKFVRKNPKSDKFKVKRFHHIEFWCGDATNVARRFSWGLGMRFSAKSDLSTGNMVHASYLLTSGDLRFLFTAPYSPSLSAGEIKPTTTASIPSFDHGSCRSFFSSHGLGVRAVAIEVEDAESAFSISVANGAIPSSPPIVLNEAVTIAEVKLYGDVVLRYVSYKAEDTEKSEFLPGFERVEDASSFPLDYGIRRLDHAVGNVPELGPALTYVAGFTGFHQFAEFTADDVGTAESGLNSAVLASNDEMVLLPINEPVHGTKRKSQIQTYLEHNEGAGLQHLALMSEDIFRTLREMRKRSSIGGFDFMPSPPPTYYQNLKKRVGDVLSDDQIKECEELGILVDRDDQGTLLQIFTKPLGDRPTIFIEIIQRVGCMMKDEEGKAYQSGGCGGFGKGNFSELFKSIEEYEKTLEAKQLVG
Description: In vitro HPPD activity assay (HGA by HPLC), wildtype enzyme characterization. The test is classed as biochemical. Particulars: normalized on Arabidopsis wild-type HPPD; reference enzyme. Here is the method: (§1) The activity assay for HPPD is based on the analysis of homogentisic acid by reversed phase HPLC.
(§2) The assay mixture can contain 150 mM potassium phosphate buffer pH 7.0, 50 mM L-ascorbic acid, 100 μM Catalase (Sigma-Aldrich), 1 μM FeSO4 and 0.2 units of purified HPPD enzyme in a total volume of 505 μl. 1 unit is defined as the amount of enzyme that is required to produce 1 nmol of HGA per minute at 20° C.
(§3) The reaction is allowed to proceed for 45 min at room temperature. The reaction is stopped by the addition of 50 μl of 4.5 M phosphoric acid. The sample is filtered using a […] pore size PVDF filtration device.
(§4) 5 μl of the cleared sample is analyzed on an UPLC HSS T3 column (particle size 1.8 μm, dimensions 2.1×50 mm; Waters) by isocratic elution using 90% 20 mM NaH2PO4 pH 2.2, 10% methanol (v/v).
(§5) HGA is detected electrochemically at 750 mV (mode: DC; polarity: positive) and quantified by integrating peak areas (Empower software; Waters).
Inhibitors are dissolved in DMSO (dimethylsulfoxide) to a concentration of 0.5 mM. From this stock solution serial five-fold dilutions are prepared in DMSO, which are used in the assay. The respective inhibitor solution accounts for 1% of the assay volume. […] Activities are normalized by setting the uninhibited enzyme activity to 100%. IC50 values are calculated using non-linear regression.
(§6) Using methods which are described in the above examples or well known in the art, purified, recombinant wildtype HPPD enzymes are characterized with respect to their kinetic properties and sensitivity towards HPPD inhibiting herbicides. Apparent michaelis constants (Km) and maximal reaction velocities (Vmax) are calculated by non-linear regression with the software GraphPad Prism 5 (GraphPad Software, La Jolla, USA) using a substrate inhibition model. […] Weighted means (by standard error) of Km and IC50 values are calculated from at least three independent experiments.
(§7) Field performance of the HPPD enzyme, which is used as a herbicide tolerance trait may depend not only on its lack of sensitivity towards HPPD inhibiting herbicides but also on its activity. To assess the potential performance of a herbicide tolerance trait a tolerance index (TI) is calculated using the following formula: […]
(§8) Easy comparison and ranking of each trait is enabled by normalizing tolerance indexes on Arabidopsis wild-type HPPD.

The test system of test [2] is Algoriphagus HPPD (SEQ ID NO: 22). The test can be described thus: In vitro HPPD activity assay, tolerance index. The class given is biochemical, Algoriphagus machipongonensis. Particulars: normalized on Arabidopsis wild-type HPPD. Here is the method:
as §1, §2, §3, §4, §5
(§9) Inhibitors are dissolved in DMSO (dimethylsulfoxide) to a concentration of 0.5 mM. From this stock solution serial five-fold dilutions are prepared in DMSO, which are used in the assay. The respective inhibitor solution accounts for 1% of the assay volume. Thus, final inhibitor concentrations range from 5 μM to 320 pM, respectively. Activities are normalized by setting the uninhibited enzyme activity to 100%. IC50 values are calculated using non-linear regression.
as §6, with “experiments. The Cheng-Prusoff equation for competitive inhibition (Cheng, Y. C.; Prusoff, W. H. Biochem Pharmacol 1973, 22, 3099-3108) is used to calculate dissociation constants (Ki).” for “experiments.”
as §7, §8

For test [3], the system named is Belliella HPPD (SEQ ID NO: 12). The test can be described thus: In vitro HPPD activity assay, tolerance index. The class given is biochemical, Belliella baltica. Particulars: normalized on Arabidopsis wild-type HPPD. On the procedure:
as §1, §2, §3, §4, §5, §9
as §6, with “experiments. The Cheng-Prusoff equation for competitive inhibition (Cheng, Y. C.; Prusoff, W. H. Biochem Pharmacol 1973, 22, 3099-3108) is used to calculate dissociation constants (Ki).” for “experiments.”
as §7, §8

Test [4] has as its system Geodermatophilus HPPD (SEQ ID NO: 32). The test can be described thus: In vitro HPPD activity assay, tolerance index. The class given is biochemical, Geodermatophilus obscurus. Particulars: normalized on Arabidopsis wild-type HPPD. On the procedure: as §1, §2, §3, §4, §5, §9
as §6, with “experiments. The Cheng-Prusoff equation for competitive inhibition (Cheng, Y. C.; Prusoff, W. H. Biochem Pharmacol 1973, 22, 3099-3108) is used to calculate dissociation constants (Ki).” for “experiments.”
as §7, §8

For test [5], the system named is Herpetosiphon HPPD (SEQ ID NO: 26). Description: In vitro HPPD activity assay, tolerance index. Particulars: normalized on Arabidopsis wild-type HPPD. The class given is biochemical, Herpetosiphon aurantiacus. On the procedure:
as §1, §2, §3, §4, §5, §9
as §6, with “experiments. The Cheng-Prusoff equation for competitive inhibition (Cheng, Y. C.; Prusoff, W. H. Biochem Pharmacol 1973, 22, 3099-3108) is used to calculate dissociation constants (Ki).” for “experiments.”
as §7, §8

Test [6] relates to Mucilaginibacter HPPD (SEQ ID NO: 28). The test can be described thus: In vitro HPPD activity assay, tolerance index. The class given is biochemical, Mucilaginibacter paludis. The settings on record: normalized on Arabidopsis wild-type HPPD. Here is the method:
as §1, §2, §3, §4, §5, §9
as §6, with “experiments. The Cheng-Prusoff equation for competitive inhibition (Cheng, Y. C.; Prusoff, W. H. Biochem Pharmacol 1973, 22, 3099-3108) is used to calculate dissociation constants (Ki).” for “experiments.”
as §7, §8

Test [7] relates to Microscilla HPPD (SEQ ID NO: 20). Description: In vitro HPPD activity assay, tolerance index. Particulars: normalized on Arabidopsis wild-type HPPD. The class given is biochemical, Microscilla marina. Here is the method:
as §1, §2, §3, §4, §5, §9
as §6, with “experiments. The Cheng-Prusoff equation for competitive inhibition (Cheng, Y. C.; Prusoff, W. H. Biochem Pharmacol 1973, 22, 3099-3108) is used to calculate dissociation constants (Ki).” for “experiments.”
as §7, §8

Test [8] concerns Nitritalea HPPD (SEQ ID NO: 14). The test can be described thus: In vitro HPPD activity assay, tolerance index. The class given is biochemical, Nitritalea halalkaliphila. Particulars: normalized on Arabidopsis wild-type HPPD. Here is the method:
as §1, §2, §3, §4, §5, §9
as §6, with “experiments. The Cheng-Prusoff equation for competitive inhibition (Cheng, Y. C.; Prusoff, W. H. Biochem Pharmacol 1973, 22, 3099-3108) is used to calculate dissociation constants (Ki).” for “experiments.”
as §7, §8

For test [9], the system named is Pontibacter HPPD (SEQ ID NO: 16). Description: In vitro HPPD activity assay, tolerance index. The test is classed as biochemical, Pontibacter sp. Particulars: normalized on Arabidopsis wild-type HPPD. Here is the method:
as §1, §2, §3, §4, §5, §9
as §6, with “experiments. The Cheng-Prusoff equation for competitive inhibition (Cheng, Y. C.; Prusoff, W. H. Biochem Pharmacol 1973, 22, 3099-3108) is used to calculate dissociation constants (Ki).” for “experiments.”
as §7, §8

Test [10] has as its system Scenedesmus HPPD (SEQ ID NO: 4). Description: In vitro HPPD activity assay, tolerance index. The test is classed as biochemical, Scenedesmus obliquus. The settings on record: normalized on Arabidopsis wild-type HPPD. On the procedure: as §1, §2, §3, §4, §5, §9
as §6, with “experiments. The Cheng-Prusoff equation for competitive inhibition (Cheng, Y. C.; Prusoff, W. H. Biochem Pharmacol 1973, 22, 3099-3108) is used to calculate dissociation constants (Ki).” for “experiments.”
as §7, §8

Turning to `COCCOCc1nc(C(F)(F)F)ccc1C(=O)C1=C(O)C2CCC(C2)C1=O` (centres unmarked) [Inhibitor 3, 2-hydroxy-3-[2-(2-methoxyethoxymethyl)-6-(trifluoromethyl)pyridine-3-carbonyl]bicyclo[3.2.1]oct-2-en-4-one], the “TI (normalized tolerance index)” value came to 1 in [1]; 29 in test [2]; 10 in test [3]; 7.4 in test [4]; 2 in test [5]; 6.9 in test [6]. Besides, the “TI (normalized tolerance index)” value turned out to be 6.7 in test [7], 1.1 in test [8], 1.7 in test [9] and 0.9 in test [10].

As for `CCS(=O)(=O)c1cc(C(F)(F)F)ccc1C1=C(O)c2ncccc2C(C)(C)S1(=O)=O` [Inhibitor 5, 7-[2-ethylsulfonyl-4-(trifluoromethyl)phenyl]-5,5-dimethyl-6,6-dioxo-thiopyrano[4,3-b]pyridin-8-ol], the “TI (normalized tolerance index)” value in test [1] is given as 1; in test [2] it was 24.7; in test [3], 10.6; in test [4] it was 5.6; in [5], 1; in test [6] it was 5.2. Further, the “TI (normalized tolerance index)” value was determined as 17.7 in test [7], 3.2 in test [8], 2.5 in test [9] and 0.6 in [10].

Take `CC(=O)N(C)c1c(Cl)ccc(C2=C(O)c3ncccc3C(C)(C)S2(=O)=O)c1Cl` [Inhibitor 6, N-[2,6-dichloro-3-(8-hydroxy-5,5-dimethyl-6,6-dioxo-thiopyrano[4,3-b]pyridin-7-yl)phenyl]-N-methyl-acetamide]: the “TI (normalized tolerance index)” value in [1] is 1; in test [2], 29.7; in test [3], 7.6; in test [4], 3.4; in test [5], 1.2; in test [6], 3.1. Moreover, the results for the “TI (normalized tolerance index)” value in test [7], in [9] and in test [10] were 14.7, 1.5 and 0.3, respectively.
